Data published in patent US7977374B2, “Thiophene and thiazole substituted trifluoroethanone derivatives as histone deacetylase (HDAC) inhibitors” (Istituto Di Ricerche Di Biologia Molecolare P. Angeletti SPA, priority 2005, dated 2011).
Read-outs that look alike come from different tables or passages of the source.

Key:
Format in all cases: biochemical
[1] = biological target: T1, HDAC 4 (Homo sapiens, UniProt P56524); assay: HDAC 4 Assay
T1 construct: The His-tagged HDAC 4, wild-type catalytic domain, was expressed in E. coli; His tag; made in house; host or cells: E. coli BL21 Star (DE3)

[2] = biological target: T2, HDAC 6 (Homo sapiens, UniProt Q9UBN7); assay: HDAC 6 Assay
T2 construct: made in house
T2 sequence (Q9UBN7 1-1215): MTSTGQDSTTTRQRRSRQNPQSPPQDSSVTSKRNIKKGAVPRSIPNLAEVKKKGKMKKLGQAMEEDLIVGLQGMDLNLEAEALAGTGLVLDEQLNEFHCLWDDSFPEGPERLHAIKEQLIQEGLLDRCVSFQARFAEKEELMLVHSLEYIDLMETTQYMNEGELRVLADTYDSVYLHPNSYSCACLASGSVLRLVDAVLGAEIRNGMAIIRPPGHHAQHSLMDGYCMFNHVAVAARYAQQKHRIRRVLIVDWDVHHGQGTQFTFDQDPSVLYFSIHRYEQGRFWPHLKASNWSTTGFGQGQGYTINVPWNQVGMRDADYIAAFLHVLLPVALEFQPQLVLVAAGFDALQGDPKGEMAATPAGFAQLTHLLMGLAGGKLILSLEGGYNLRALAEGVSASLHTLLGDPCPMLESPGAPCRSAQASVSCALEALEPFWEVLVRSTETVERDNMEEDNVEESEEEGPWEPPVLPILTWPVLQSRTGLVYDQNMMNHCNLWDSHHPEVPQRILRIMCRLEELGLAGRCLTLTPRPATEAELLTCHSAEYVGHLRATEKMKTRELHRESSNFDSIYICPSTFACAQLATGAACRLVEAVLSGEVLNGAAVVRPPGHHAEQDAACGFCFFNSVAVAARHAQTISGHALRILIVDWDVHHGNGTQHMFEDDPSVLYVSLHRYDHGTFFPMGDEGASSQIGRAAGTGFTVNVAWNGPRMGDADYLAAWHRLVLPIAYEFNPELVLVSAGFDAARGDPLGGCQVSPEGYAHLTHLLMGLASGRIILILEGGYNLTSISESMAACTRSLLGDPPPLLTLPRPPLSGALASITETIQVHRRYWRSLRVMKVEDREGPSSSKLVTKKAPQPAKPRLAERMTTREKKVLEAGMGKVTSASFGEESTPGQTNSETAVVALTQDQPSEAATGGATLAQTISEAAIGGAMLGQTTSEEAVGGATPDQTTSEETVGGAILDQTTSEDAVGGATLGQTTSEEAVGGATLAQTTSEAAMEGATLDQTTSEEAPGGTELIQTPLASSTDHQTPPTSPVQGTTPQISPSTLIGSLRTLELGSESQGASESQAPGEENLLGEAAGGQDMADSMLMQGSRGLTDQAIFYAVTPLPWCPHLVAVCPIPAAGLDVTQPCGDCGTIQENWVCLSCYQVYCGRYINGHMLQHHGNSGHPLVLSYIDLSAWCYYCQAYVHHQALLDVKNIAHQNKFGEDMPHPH

[3] = biological target: HDAC 1 (Homo sapiens, UniProt Q13547); assay: HDAC1 activity, assays described on pages 104 to 106 of WO 2006/061638
Sequence of HDAC 1 (Q13547 whole entry): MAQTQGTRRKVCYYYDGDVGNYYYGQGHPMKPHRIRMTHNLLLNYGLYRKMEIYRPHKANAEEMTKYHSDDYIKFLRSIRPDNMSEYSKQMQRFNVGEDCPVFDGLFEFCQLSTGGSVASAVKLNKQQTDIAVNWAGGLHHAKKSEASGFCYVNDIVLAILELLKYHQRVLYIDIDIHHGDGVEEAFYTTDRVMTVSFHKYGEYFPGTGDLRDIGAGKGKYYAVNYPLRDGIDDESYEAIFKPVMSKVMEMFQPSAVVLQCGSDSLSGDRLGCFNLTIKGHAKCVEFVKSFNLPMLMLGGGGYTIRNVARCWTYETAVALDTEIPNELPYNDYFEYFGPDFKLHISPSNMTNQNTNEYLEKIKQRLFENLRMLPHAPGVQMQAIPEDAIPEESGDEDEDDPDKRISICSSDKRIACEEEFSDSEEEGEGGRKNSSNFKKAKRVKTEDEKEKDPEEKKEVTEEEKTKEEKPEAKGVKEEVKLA

T1 sequence (P56524 655-1084 limits assumed): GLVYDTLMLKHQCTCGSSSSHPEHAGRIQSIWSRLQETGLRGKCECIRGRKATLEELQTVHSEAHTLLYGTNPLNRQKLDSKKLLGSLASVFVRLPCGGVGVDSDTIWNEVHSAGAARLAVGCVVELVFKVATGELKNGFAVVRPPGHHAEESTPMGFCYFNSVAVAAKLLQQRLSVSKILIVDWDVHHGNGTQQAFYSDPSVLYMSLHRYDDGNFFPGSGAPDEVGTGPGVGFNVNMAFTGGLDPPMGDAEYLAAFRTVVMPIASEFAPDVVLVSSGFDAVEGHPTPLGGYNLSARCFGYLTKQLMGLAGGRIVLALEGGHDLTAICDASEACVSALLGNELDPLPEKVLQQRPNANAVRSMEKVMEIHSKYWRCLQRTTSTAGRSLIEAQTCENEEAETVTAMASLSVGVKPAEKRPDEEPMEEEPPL

Row | IC50 ([1]; not active up to the stated concentration, read-out: HDAC 4 IC50, Not active up to) | inhibition at 0.001 µM ([2]; @ 1 nM, read-out: HDAC 6 % inh.) | IC50 [3] | IC50 ([1]; read-out: HDAC 4 IC50) | IC50 [2] | inhibition at 1 µM ([1]; @ 1000 nM, read-out: HDAC 4 % inh.) | Compound | selectivity for Class II HDAC (HDAC 4 and 6) over Class I (HDAC 1) ([1]; HDAC 4 and 6 versus HDAC 1)
1 | > 1 µM | 50% | 0.006 µM |  |  |  | C[C@@H](NC(=O)c1ccc(C(=O)NO)s1)c1ccccc1 [N-hydroxy-N′-[(1R)-1-phenytethyl]thiophene-2,5-dicarboxamide] | 
2 |  |  | 0.71 µM | 0.095 µM | 0.35 µM |  | C[C@@H](NC(=O)c1ccc(C(=O)C(F)(F)F)s1)c1ccccc1 [Example 8, N-[(1R)-1-phenylethyl]-5-(trifluoroacetyl)thiophene-2-carboxamide] | showed selectivity for Class II HDAC (HDAC 4 and 6) over Class I (HDAC 1)
3 |  |  |  |  |  | 42% | CC(/C=C/C(=O)NO)=C\[C@@H](C)C(=O)c1ccc(N(C)C)cc1 [TSA, trichostatin A] | 
